The subject of this test is E. coli Neumann. Briefly: Subcutaneous ED100 in infected mice. Type of test: in vivo. The following applies: Escherichia coli, sc, mice infected with E. coli Neumann, mg/kg body weight, ED100 = dose that cures 100 % of the animals, read-out: Subkutane ED100 bei infizierten Mäusen.

In EP0001618A2, “Process for the preparation of di-N-oxides and their pharmaceutical use” (BAYER AG, priority 1977, dated 1979) one finds ED100 data, which are given here for 1 compound.

Consider `Cc1c(C(=O)N2CN(C)CCN(C)C2)[n+]([O-])c2ccccc2[n+]1[O-]` [Beispiel 1], for which the ED100 was 5 to 10 mg/kg.
